The source of these data is US5001133A, “Benzoic acid derivatives” (Sandoz Ltd., priority 1983, dated 1991).

Assay [1] has as its system 5-HT M-receptors. As to conditions: slow i.v. injection of 10 mg; cited from earlier work.
Assay [2] relates to M receptors for serotonin. Conditions: isolated rabbit vagus nerve; cited from earlier work.
Assay [3] concerns the target T1, serotonin M receptor (Oryctolagus cuniculus, UniProt A0A5F9C9J3).
T1 construct: isolated rabbit heart; from tissue; host or cells: isolated rabbit heart
T1 sequence (A0A5F9C9J3 1-494): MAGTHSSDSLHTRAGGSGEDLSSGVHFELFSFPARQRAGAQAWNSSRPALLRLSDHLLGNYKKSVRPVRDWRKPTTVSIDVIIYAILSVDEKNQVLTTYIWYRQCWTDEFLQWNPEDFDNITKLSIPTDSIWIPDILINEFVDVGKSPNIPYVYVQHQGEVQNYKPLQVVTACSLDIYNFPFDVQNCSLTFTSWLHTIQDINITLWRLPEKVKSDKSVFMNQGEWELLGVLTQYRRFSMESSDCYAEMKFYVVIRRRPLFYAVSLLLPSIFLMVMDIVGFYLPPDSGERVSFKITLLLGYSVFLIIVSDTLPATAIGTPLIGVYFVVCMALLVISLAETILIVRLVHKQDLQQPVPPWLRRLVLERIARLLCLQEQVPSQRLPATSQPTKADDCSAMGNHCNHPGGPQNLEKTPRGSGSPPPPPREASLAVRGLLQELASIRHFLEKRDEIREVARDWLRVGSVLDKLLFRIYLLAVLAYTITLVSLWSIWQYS
Kind of assay: inhibition of the effect of serotonin on the isolated rabbit heart. Conditions: antagonism of serotonin, read-out: pA2 (converted). The source says: The serotonin M receptor antagonist activity is also indicated by inhibiting the effect of serotonin on the isolated rabbit heart according to the method of J.R.Fozard and A.T.Moborak Ali, European Journal of Pharmacology, (1978), 49, 109-112 at concentrations of 10^-11 to 10^-5 M of the compound of the invention. pD'2 or pA2 values may be calculated in the conventional manner.
The compounds of formula I may be administered in similar manner to known standards for use in these utilities. The suitable daily dosage for a particular compound will depend on a number of factors such as its relative potency of activity.

The test system of assay [4] is serotonin M receptor. As to conditions: blister base, forearm of human volunteers; cited from earlier work.

As for `CCN(CC)CCNC(=O)c1cc(Cl)c(N)cc1OC` [Metoclopramide], the “effect on a migraine attack” value in assay [1] is on record as “immediate beneficial effect”. Take `CCN(CC)C(=O)[C@@H]1C=C2c3cccc4[nH]c(Br)c(c34)C[C@H]2N(C)C1` [BOL--148]: the “block of the action of serotonin on C fibre action potential amplitude” value (from here on “block of the action of serotonin”) in assay [2] is “not blocked”. As to `CSc1ccc2c(c1)C(N1CCN(C)CC1)Cc1ccccc1S2` (stereo not drawn) [metitepine], the “block of the action of serotonin” value in assay [2] is recorded as “not blocked”. With `COC1CC2CC(OC(=O)c3c[nH]c4ccccc34)CC1N2C` (stereo not drawn) [Example 2], the Kb in assay [3] is 10 pM. In the case of `CC[C@@H](CO)NC(=O)[C@@H]1C=C2c3cccc4c3c(cn4C)C[C@H]2N(C)C1` [methysergide], in assay [2], the “block of the action of serotonin” value is “not blocked”. On to `CCN(CC)C(=O)[C@@H]1C=C2c3cccc4[nH]cc(c34)C[C@H]2N(C)C1` [lysergic acid diethylamide], for which the “inhibition of the algesic action of serotonin” value in assay [4] is on record as “not inhibited”.
